These results are taken from ChEMBL document CHEMBL1909046, “DrugMatrix in vitro pharmacology data”.

Assay [1] addresses Mitogen-activated protein kinase 3 (Homo sapiens, UniProt P27361). The assay is described as follows: DRUGMATRIX: Protein Serine/Threonine Kinase, ERK1 enzyme inhibition (substrate: Myelin Basic Protein). Also on record: species or system Escherichia coli. Particulars: Not Active = under 50% inhibition at 10 µM.
For assay [2], the target named is Sigma non-opioid intracellular receptor 1 (Homo sapiens, UniProt Q99720). The experiment in a line: DRUGMATRIX: Sigma1 radioligand binding (ligand: [3H] Haloperidol). Conditions: jurkat; Not Active = under 50% inhibition at 10 µM. The assay is classed as cell membranes, Jurkat, Membrane.
Sigma non-opioid intracellular receptor 1, sequence (Q99720 whole entry): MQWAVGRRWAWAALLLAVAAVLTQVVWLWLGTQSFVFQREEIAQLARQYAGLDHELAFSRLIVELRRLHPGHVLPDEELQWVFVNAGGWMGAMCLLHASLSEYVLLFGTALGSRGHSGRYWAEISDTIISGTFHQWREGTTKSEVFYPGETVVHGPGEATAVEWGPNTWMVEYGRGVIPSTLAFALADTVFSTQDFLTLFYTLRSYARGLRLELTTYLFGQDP
Assay [3] addresses 5-hydroxytryptamine receptor 4 (Cavia porcellus, UniProt O70528). The assay is classed as cell membranes, Dunkin-Hartley, Striatum, Membrane.
For the next assay, the target named is Melanocortin receptor 3 (Homo sapiens, UniProt P41968). The assay is classed as cell membranes, Membrane. Particulars: hek293. Note: in other assays of this panel Not Active means under 50% inhibition at 10 µM.
Melanocortin receptor 3, sequence (P41968 whole entry): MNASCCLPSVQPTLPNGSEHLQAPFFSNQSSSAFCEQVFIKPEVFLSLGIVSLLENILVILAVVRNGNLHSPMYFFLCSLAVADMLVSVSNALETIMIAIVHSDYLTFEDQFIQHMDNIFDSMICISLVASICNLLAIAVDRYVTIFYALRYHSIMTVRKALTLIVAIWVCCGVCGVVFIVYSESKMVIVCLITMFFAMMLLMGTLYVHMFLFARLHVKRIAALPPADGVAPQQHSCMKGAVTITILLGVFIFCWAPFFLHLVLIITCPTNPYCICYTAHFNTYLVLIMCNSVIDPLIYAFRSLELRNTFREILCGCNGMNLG
For assay [4], the target named is Aldo-keto reductase family 1 member B1 (Rattus norvegicus, UniProt P07943). The assay is described as follows: biochemical. Type of assay: tissue-based, Lens of camera-type eye.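 Note: inhibition of aldose reductase enzyme activity, measured with DL-glyceraldehyde as the substrate; in other assays of this panel Not Active means under 50% inhibition at 10 µM.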
A further assay addresses Melanocortin receptor 4 (Homo sapiens, UniProt P32245). The assay is classed as cell membranes, Membrane. Conditions: hek293.

Melanocortin receptor 4, sequence (P32245 whole entry): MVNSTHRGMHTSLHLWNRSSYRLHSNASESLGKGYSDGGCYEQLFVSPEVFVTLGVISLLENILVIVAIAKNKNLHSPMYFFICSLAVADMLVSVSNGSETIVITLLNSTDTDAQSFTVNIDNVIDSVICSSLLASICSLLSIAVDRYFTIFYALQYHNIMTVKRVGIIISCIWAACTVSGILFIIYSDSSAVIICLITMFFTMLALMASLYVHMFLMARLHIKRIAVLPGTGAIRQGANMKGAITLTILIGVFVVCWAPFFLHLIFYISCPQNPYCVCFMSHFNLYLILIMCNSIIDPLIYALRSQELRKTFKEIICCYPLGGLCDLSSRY
5-hydroxytryptamine receptor 4, sequence (O70528 whole entry): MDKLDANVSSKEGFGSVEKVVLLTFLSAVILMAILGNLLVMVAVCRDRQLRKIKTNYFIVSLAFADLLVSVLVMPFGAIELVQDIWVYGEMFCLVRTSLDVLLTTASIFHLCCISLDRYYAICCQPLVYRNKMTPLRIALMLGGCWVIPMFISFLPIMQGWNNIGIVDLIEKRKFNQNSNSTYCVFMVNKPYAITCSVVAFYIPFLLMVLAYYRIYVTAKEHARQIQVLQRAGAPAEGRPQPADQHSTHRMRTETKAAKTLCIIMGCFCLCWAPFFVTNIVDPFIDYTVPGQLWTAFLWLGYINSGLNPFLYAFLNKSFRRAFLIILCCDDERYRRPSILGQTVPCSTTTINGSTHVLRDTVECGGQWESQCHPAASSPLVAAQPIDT
Mitogen-activated protein kinase 3, sequence (P27361 whole entry): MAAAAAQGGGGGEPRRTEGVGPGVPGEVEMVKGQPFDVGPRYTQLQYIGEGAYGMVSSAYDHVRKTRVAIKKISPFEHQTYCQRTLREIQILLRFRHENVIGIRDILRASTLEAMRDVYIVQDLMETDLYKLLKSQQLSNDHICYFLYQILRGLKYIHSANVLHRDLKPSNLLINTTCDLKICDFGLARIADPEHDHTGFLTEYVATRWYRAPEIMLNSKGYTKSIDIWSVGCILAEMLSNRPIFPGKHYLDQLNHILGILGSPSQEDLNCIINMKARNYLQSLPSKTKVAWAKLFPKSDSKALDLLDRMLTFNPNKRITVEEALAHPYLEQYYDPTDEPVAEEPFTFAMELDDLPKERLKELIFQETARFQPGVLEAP

Consider `Cc1cn[nH]c1` [FOMEPIZOLE], for which the IC50 result (in assay [1]; in assay [2]; in assay [3]; on Melanocortin receptor 3; in assay [4]; against Melanocortin receptor 4) was “Not Active” in each case.
As to `NC[C@@H]1O[C@H](O[C@H]2[C@@H](O)[C@H](O[C@@H]3[C@@H](O)[C@H](N)C[C@H](N)[C@H]3O[C@H]3O[C@H](CN)[C@@H](O)[C@H](O)[C@H]3N)O[C@@H]2CO)[C@H](N)[C@@H](O)[C@@H]1O` [FRAMYCETIN], the half-maximal inhibitory concentration (IC50) entry (in assay [1]; in assay [2]; in assay [3]; against Melanocortin receptor 3; in assay [4]; against Melanocortin receptor 4) was “Not Active” in each case.
On to `C[C@H]([C@](O)(Cn1cncn1)c1ccc(F)cc1F)S(C)(=O)=O` [GENACONAZOLE], for which the IC50 entry (in assay [1]; in assay [2]; in assay [3]; on Melanocortin receptor 3; in assay [4]; against Melanocortin receptor 4) was “Not Active” in each case.
As for `Cc1c(F)c(N2CCNC(C)C2)cc2c1c(=O)c(C(=O)O)cn2C1CC1` (centres undefined) [GREPAFLOXACIN], the half-inhibitory concentration (IC50) entry (in assay [1]; in assay [2]; in assay [3]; on Melanocortin receptor 3; in assay [4]; at Melanocortin receptor 4) was “Not Active” in each case.
With `COc1ccccc1OCC(O)CO` (centres undefined) [GUAIFENESIN], the half-maximal inhibitory concentration (IC50) result (in assay [1]; in assay [2]; in assay [3]; against Melanocortin receptor 3; in assay [4]; at Melanocortin receptor 4) was “Not Active” in each case.
Regarding `N=C(N)N/N=C/c1c(Cl)cccc1Cl` [GUANABENZ], the IC50 entry (in assay [1]; in assay [2]; in assay [3]; against Melanocortin receptor 3; in assay [4]; against Melanocortin receptor 4) was “Not Active” throughout.
For the compound `C[C@]12CCC(=O)C=C1CC[C@@H]1[C@@H]2[C@@H](O)C[C@@]2(C)[C@H]1CC[C@]2(O)C(=O)CO` [HYDROCORTISONE], the IC50 entry (in assay [1]; in assay [2]; in assay [3]; at Melanocortin receptor 3; in assay [4]; on Melanocortin receptor 4) was “Not Active” each time.
For the compound `C/C=C\c1ccc(O)c(OC)c1` [ISOEUGENOL], the 50% inhibitory concentration (IC50) entry (in assay [1]; in assay [2]; in assay [3]; on Melanocortin receptor 3; in assay [4]; against Melanocortin receptor 4) was “Not Active” throughout.
As to `NC[C@H]1O[C@H](O[C@H]2[C@H](O)[C@@H](O[C@H]3O[C@H](CO)[C@@H](O)[C@H](N)[C@H]3O)[C@H](N)C[C@@H]2N)[C@H](O)[C@@H](O)[C@@H]1O` [KANAMYCIN], the half-inhibitory concentration (IC50) result (in assay [1]; in assay [2]; in assay [3]; against Melanocortin receptor 3; in assay [4]; against Melanocortin receptor 4) was “Not Active” each time.
On to `CC[C@H](C)C(=O)O[C@H]1C[C@@H](C)C=C2C=C[C@H](C)[C@H](CC[C@@H]3C[C@@H](O)CC(=O)O3)[C@H]21` [LOVASTATIN], for which the half-inhibitory concentration (IC50) result (in assay [1]; in assay [2]; in assay [3]; against Melanocortin receptor 3; in assay [4]; at Melanocortin receptor 4) was “Not Active” throughout.
For `CC(C(=O)O)c1ccc(CC2CCCC2=O)cc1` (centres undefined) [LOXOPROFEN], the half-inhibitory concentration (IC50) entry (in assay [1]; in assay [2]; in assay [3]; against Melanocortin receptor 3; in assay [4]; against Melanocortin receptor 4) was “Not Active” each time.
Regarding `Cc1cccc(Nc2ccccc2C(=O)O)c1C` [MEFENAMIC ACID], the IC50 entry (in assay [1]; in assay [2]; in assay [3]; at Melanocortin receptor 3; in assay [4]; against Melanocortin receptor 4) was “Not Active” each time.
On to `CC(=O)O[C@]1(C(C)=O)CC[C@H]2[C@@H]3C=C(C)C4=CC(=O)CC[C@]4(C)[C@H]3CC[C@@]21C` [MEGESTROL ACETATE], for which the IC50 entry (in assay [1]; in assay [2]; in assay [3]; at Melanocortin receptor 3; in assay [4]; against Melanocortin receptor 4) was “Not Active” throughout.
Turning to `COc1ccccc1OCC(O)COC(N)=O` (centres undefined) [METHOCARBAMOL], the half-maximal inhibitory concentration (IC50) result (in assay [1]; in assay [2]; in assay [3]; at Melanocortin receptor 3; in assay [4]; against Melanocortin receptor 4) was “Not Active” in each case.
With `CN(Cc1cnc2nc(N)nc(N)c2n1)c1ccc(C(=O)N[C@@H](CCC(=O)O)C(=O)O)cc1` [METHOTREXATE], the IC50 entry (in assay [1]; in assay [2]; in assay [3]; against Melanocortin receptor 3; in assay [4]; at Melanocortin receptor 4) was “Not Active” in each case.
For `COC(=O)c1ccccc1O` [METHYL SALICYLATE], the IC50 result (in assay [1]; in assay [2]; in assay [3]; against Melanocortin receptor 3; in assay [4]; against Melanocortin receptor 4) was “Not Active” in each case.
On to `COc1ccc2cc(CCC(C)=O)ccc2c1` [NABUMETONE], for which the half-maximal inhibitory concentration (IC50) entry (in assay [1]; in assay [2]; in assay [3]; against Melanocortin receptor 3; in assay [4]; on Melanocortin receptor 4) was “Not Active” each time.
Turning to `O=C(O)c1cccnc1` [NIACIN], the IC50 result (in assay [1]; in assay [2]; in assay [3]; against Melanocortin receptor 3; in assay [4]; on Melanocortin receptor 4) was “Not Active” each time.
As to `CNC(=C[N+](=O)[O-])NCCSCc1csc(CN(C)C)n1` [NIZATIDINE], the concentration for half-maximal inhibition (IC50) result (in assay [1]; in assay [2]; in assay [3]; on Melanocortin receptor 3; in assay [4]; on Melanocortin receptor 4) was “Not Active” each time.
In the case of `C[C@]12C/C(=C/O)C(=O)C[C@@H]1CC[C@@H]1[C@@H]2CC[C@@]2(C)[C@H]1CC[C@]2(C)O` [OXYMETHOLONE], the IC50 result (in assay [1]; in assay [2]; in assay [3]; against Melanocortin receptor 3; in assay [4]; against Melanocortin receptor 4) was “Not Active” in each case.
As to `CC(C)(CO)C(O)C(=O)NCCCO` (centres undefined) [PANTHENOL], the IC50 result (in assay [1]; in assay [2]; in assay [3]; against Melanocortin receptor 3; in assay [4]; against Melanocortin receptor 4) was “Not Active” throughout.
Regarding `COc1ccc(Cc2nccc3cc(OC)c(OC)cc23)cc1OC` [PAPAVERINE], the IC50 result (in assay [1]; in assay [2]; in assay [3]; against Melanocortin receptor 3; in assay [4]; at Melanocortin receptor 4) was “Not Active” each time.
Regarding `OCCN1CCN(CCCN2c3ccccc3Sc3ccc(Cl)cc32)CC1` [PERPHENAZINE], the IC50 entry (in assay [1]; in assay [2]; in assay [3]; at Melanocortin receptor 3; in assay [4]; against Melanocortin receptor 4) was “Not Active” each time.
As for `CCCCC1C(=O)N(c2ccccc2)N(c2ccccc2)C1=O` [PHENYLBUTAZONE], the concentration for half-maximal inhibition (IC50) entry (in assay [1]; in assay [2]; in assay [3]; against Melanocortin receptor 3; in assay [4]; against Melanocortin receptor 4) was “Not Active” in each case.
`Cc1cccc(Nc2cc(Cl)nc(SCC(=O)O)n2)c1C` [PIRINIXIC ACID]: the IC50 – broadly, the concentration that gives 50% inhibition – is “Not Active” in assay [1]; “Not Active” in assay [2]; “Not Active” in assay [3]; “Not Active” against Melanocortin receptor 3; 2820 nM in assay [4] (read-out: IC50); “Not Active” against Melanocortin receptor 4.
Regarding `CC[C@H](C)C(=O)O[C@H]1C[C@H](O)C=C2C=C[C@H](C)[C@H](CC[C@@H](O)C[C@@H](O)CC(=O)O)[C@H]21` [PRAVASTATIN], the half-inhibitory concentration (IC50) entry (in assay [1]; in assay [2]; in assay [3]; on Melanocortin receptor 3; in assay [4]; against Melanocortin receptor 4) was “Not Active” throughout.
For the compound `CC(C)(Sc1cc(C(C)(C)C)c(O)c(C(C)(C)C)c1)Sc1cc(C(C)(C)C)c(O)c(C(C)(C)C)c1` [PROBUCOL], the IC50 result (in assay [1]; in assay [2]; in assay [3]; on Melanocortin receptor 3; in assay [4]; on Melanocortin receptor 4) was “Not Active” throughout.
Turning to COBALT(II) ACETYLACETONATE, the half-inhibitory concentration (IC50) result (in assay [1]; in assay [2]; in assay [3]; against Melanocortin receptor 3; in assay [4]; against Melanocortin receptor 4) was “Not Active” in each case. For the same compound, the Ki entry (in assay [1]; in assay [2]; in assay [3]; on Melanocortin receptor 3; in assay [4]; at Melanocortin receptor 4) was “Not Active” throughout.
